Measurements reported in ChEMBL document CHEMBL3351784, “Synthesis and evaluation of anti-inflammatory activity of derivatives of the marine natural products fuscol and eunicol” (Bioorg Med Chem Lett, 2014).

Assays:
Mus musculus [1] = assay: Antiinflammatory activity in mouse assessed as reduction in PMA-induced ear edema at 0.1 mg/ear administered topically measured after 24 hrs relative to control; type: functional; parameters: scale not given: the % may be the effect or the level left
Mus musculus [2] = assay: Toxicity in mouse at 0.1 mg/ear administered topically; type: organism-based; details: in vivo, topical_or_ocular
Mus musculus [3] = assay: Antiinflammatory activity in mouse assessed as reduction in PMA-induced ear edema at 3 mg/ear administered topically relative to control; type: functional; parameters: scale not given: the % may be the effect or the level left

| Compound | Activity (Mus musculus [1]) [%] | Activity (Mus musculus [2]) | Activity (Mus musculus [3]) [%] |
| --- | --- | --- | --- |
| C=C[C@@]1(C)CC[C@H](/C(C)=C/C=C/C(C)(C)O)C[C@@H]1C(=C)C [FUSCOL] | 46 | Non-toxic |  |
| C/C(=C\C=C\C(C)(C)O)c1ccccc1 | 0 | Non-toxic |  |
| C/C(=C\C=C\C(C)(C)O)C(C)C | 80 | Non-toxic |  |
| C/C(=C\C=C\C(C)(C)O)C1CCCCC1 | 62 | Non-toxic |  |
| CC1=CCC(/C(C)=C/C=C/C(C)(C)O)CC1 (stereo not given) | 58 | Non-toxic |  |
| C/C(=C\C=C\C(C)(C)O)C1CC[C@@H](C)C[C@H]1O (stereo not given in full) | 71 | Non-toxic |  |
| COc1ccc2c(c1)c(CC(=O)O)c(C)n2C(=O)c1ccc(Cl)cc1 [INDOMETHACIN] |  |  | 51 |
| C/C(=C\C=C\C(C)(C)O)C1CCc2ccccc2C1 (stereo not given) | 58 | Non-toxic |  |
